# In ChEMBL document CHEMBL5729175, “Pharmaceutical composition for preventing or treating acute myeloid leukemia or metastatic breast cancer” (2022):
# Molecular target: T1, Receptor-type tyrosine-protein kinase FLT3 (Homo sapiens, UniProt P36888)
# T1 sequence (P36888 whole entry): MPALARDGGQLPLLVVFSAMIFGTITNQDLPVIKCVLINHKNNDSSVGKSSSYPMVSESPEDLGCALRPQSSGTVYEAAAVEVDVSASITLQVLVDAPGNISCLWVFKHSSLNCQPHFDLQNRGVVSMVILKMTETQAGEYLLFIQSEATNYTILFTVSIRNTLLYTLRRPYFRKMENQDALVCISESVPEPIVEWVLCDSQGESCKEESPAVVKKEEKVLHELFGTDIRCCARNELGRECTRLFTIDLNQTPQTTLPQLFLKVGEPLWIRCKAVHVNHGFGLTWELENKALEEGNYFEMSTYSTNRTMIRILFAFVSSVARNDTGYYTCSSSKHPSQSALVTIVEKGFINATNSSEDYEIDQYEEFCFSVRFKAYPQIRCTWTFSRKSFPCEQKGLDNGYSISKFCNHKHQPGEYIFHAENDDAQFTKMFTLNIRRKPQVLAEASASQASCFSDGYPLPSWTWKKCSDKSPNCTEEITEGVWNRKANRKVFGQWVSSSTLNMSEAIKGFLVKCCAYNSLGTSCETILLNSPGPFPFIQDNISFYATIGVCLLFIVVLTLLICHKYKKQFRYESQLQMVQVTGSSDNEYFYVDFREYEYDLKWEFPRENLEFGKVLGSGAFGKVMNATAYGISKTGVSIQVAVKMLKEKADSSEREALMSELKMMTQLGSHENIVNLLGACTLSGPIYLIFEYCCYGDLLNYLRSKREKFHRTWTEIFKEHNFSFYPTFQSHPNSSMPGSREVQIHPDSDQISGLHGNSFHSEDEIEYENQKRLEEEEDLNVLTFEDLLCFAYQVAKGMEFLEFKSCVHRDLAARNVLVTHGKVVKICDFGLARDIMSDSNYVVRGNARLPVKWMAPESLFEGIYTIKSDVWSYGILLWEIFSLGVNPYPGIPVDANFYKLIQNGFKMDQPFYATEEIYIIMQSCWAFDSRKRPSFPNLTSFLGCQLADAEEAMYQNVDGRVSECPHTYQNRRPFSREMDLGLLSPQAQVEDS
# Assay: In Vitro Kinase Assay: The inhibition of the FLT3 kinase activity was measured with homogeneous, time-resolved fluorescence (HTRF) assays. Recombinant proteins containing the FLT3 kinase domain were purchased from Invitrogen (Carlsbad, Calif., USA). Optimal enzyme, ATP, and substrate concentrations were established with the HTRF KinEASE kit (Cisbio, France) according to the manufacturer's instructions. The FLT3 enzymes were mixed with serially diluted compounds and peptide substrates in a kinase reaction buffer (50 mM HEPES (pH 7.0), 500 μM ATP, 0.1 mM sodium orthovanadate, 5 mM MgCl2, 1 mM DTT, 0.01% bovine serum albumin (BSA), and 0.02% NaN3). Ten microliters of the total volume of the kinase reaction were added to the wells of a 96-well assay plate. The kinase reactions were incubated for 30 min at 25° C. For the detection of the phospho-substrate, the Eu3b-Cryptate-conjugated mouse monoclonal antibody (PT66) and the streptavidin-XL665 (SA-XL) were added, and the reactions were then incubated for 1 hour at 25° C. The signal was measured on an Victor X5 multi-label reader (PerkinElmer, Waltham, Mass., USA).
row,Compound,IC50 [nM]
1,O=C1Nc2ccc(Cl)cc2/C1=C1/Nc2ccccc2/C1=N\OCCN1CCNCC1,1.3
2,O=C1Nc2ccc(F)cc2/C1=C1/Nc2ccc(F)cc2/C1=N\OCCN1CCNCC1,26.2
3,CN1CCN(CCO/N=C2/C(=C3/C(=O)Nc4ccccc43)Nc3ccccc32)CC1,7.42
4,O=C1Nc2ccc(Br)cc2/C1=C1/Nc2ccccc2/C1=N\OCCN1CCNCC1,1
5,CN1CCN(CCO/N=C2/C(=C3/C(=O)Nc4ccc(Cl)cc43)Nc3ccccc32)CC1,2.4
6,O=C1Nc2ccccc2/C1=C1/Nc2ccccc2/C1=N\OCCN1CCCCC1,251
7,O=C1Nc2ccccc2/C1=C1/Nc2ccccc2/C1=N\OCCN1CCCC1,51.9
8,O=C1Nc2ccc(I)cc2/C1=C1/Nc2ccccc2/C1=N\OCCN1CCNCC1,1.8
9,NC1CCN(CCO/N=C2/C(=C3/C(=O)Nc4ccc(F)cc43)Nc3ccc(F)cc32)CC1,81.5
10,COC(=O)c1ccc2c(c1)/C(=C1/Nc3ccccc3/C1=N\OCCN1CCOCC1)C(=O)N2,253
11,O=C1Nc2ccc(F)cc2/C1=C1/Nc2ccccc2/C1=N\OCCN1CCNCC1,0.9

# Further lines, results first:
row,IC50 [nM],Compound
1,35.5,O=C1Nc2ccc([N+](=O)[O-])cc2/C1=C1/Nc2ccc(F)cc2/C1=N\OCCN1CCNCC1
2,453,O=C1Nc2ccc([N+](=O)[O-])cc2/C1=C1/Nc2ccc(F)cc2/C1=N\OCCN1CCCCC1
3,40.4,CN1CCN(CCO/N=C2/C(=C3/C(=O)Nc4ccc(F)cc43)Nc3ccc(F)cc32)CC1
4,3.2,CN1CCN(CCO/N=C2/C(=C3/C(=O)Nc4ccc(F)cc43)Nc3ccccc32)CC1
5,35.5,CN1CCN(CCO/N=C2/C(=C3/C(=O)Nc4ccc([N+](=O)[O-])cc43)Nc3ccc(F)cc32)CC1
6,112,O=C1Nc2ccc([N+](=O)[O-])cc2/C1=C1/Nc2ccc(F)cc2/C1=N\OCCN1CCCC1
7,5.8,CN1CCN(CCO/N=C2/C(=C3/C(=O)Nc4ccc(I)cc43)Nc3ccccc32)CC1
